# Where two headings read alike, the source gives them in different places.
# Key:
# paddy rice [1] = experiment: Test Example 1: germination rate of treated paddy seeds (pot test); type: in vivo
# Experimental: (§1) Treatment of dried paddy seeds was carried out at a coating ratio of 0.5 (seeds:iron powder=1:0.5). More specifically, paddy seeds, an iron powder, and calcined gypsum were mixed and stirred together while spraying water thereon, using a coating machine according to a conventional method, to coat the seeds with the iron powder and the calcined gypsum. The outer layer of the coated seeds was further similarly coated with finishing calcined gypsum mixed with each of the paddy seed treatment agents containing the herbicidal active components shown in Tables 2 to 6.
# In a 200-cm^2 plastic pot, paddy field soil was placed, and tillage was carried out, followed by sowing seeds of Echinochloa oryzicola and Scirpus juncoides on the soil surface. Then, tubers of Eleocharis kuroguwai in the germination state were buried in such a manner that tips of the sprouts in tubers are exposed to the outside of the soil surface. Four paddy seeds treated with each paddy seed treatment agent obtained in Preparation Example were sown, and water was gently introduced to allow flooding to a depth of 4 cm. On Day 7 after the sowing, the water was removed by suction. When the rice seedlings have grown to the one-leaf stage, flooding was allowed again to a depth of 4 cm. On Day 15 after the sowing, the germination rate of the paddy seeds and the growth-inhibitory effect on the weeds were judged. The germination rate of the paddy seeds is expressed as %, and the growth-inhibitory effect on the weeds is expressed as a value of 0 to 100 representing the degree of inhibition, wherein 0 represents no inhibition, and 100 represents complete death.
# paddy rice [2] = settings: in vivo, 22 days
# Experimental: as §1
# In a 200-cm^2 plastic pot, paddy field soil was placed, and tillage was carried out, followed by sowing seeds of Scirpus juncoides on the soil surface. Then, the seeds were covered with 0.5-cm thick soil. Subsequently, flooding was allowed to a depth of 4 cm, followed by sowing seeds of Monochoria vaginalis on the soil surface. When the Monochoria vaginalis reached the five-leaf stage, three paddy seeds treated with each paddy seed treatment agent obtained in Preparation Example were sown. […] The germination rate of the paddy seeds is expressed as %, and the growth-inhibitory effect on the weeds is expressed as a value of 0 to 100 representing the degree of inhibition, wherein 0 represents no inhibition, and 100 represents complete death.
# Lindernia species = experiment: Test Example 2: growth-inhibitory effect on weeds (pot test); type: in vivo; settings: Table 6; spontaneously grown weeds; scale 0 to 100; Day 22 after sowing
# Experimental: as §1
# (§2) In a 200-cm^2 plastic pot, paddy field soil was placed, and tillage was carried out, followed by sowing seeds of Scirpus juncoides on the soil surface. Then, the seeds were covered with 0.5-cm thick soil. Subsequently, flooding was allowed to a depth of 4 cm, followed by sowing seeds of Monochoria vaginalis on the soil surface. When the Monochoria vaginalis reached the five-leaf stage, three paddy seeds treated with each paddy seed treatment agent obtained in Preparation Example were sown. On Day 22 after the sowing of paddy seeds, the germination rate of the paddy seeds and the growth-inhibitory effect on the weeds were judged. Since Lindernia species were spontaneously grown in the test field soil, the growth-inhibitory effect on the Lindernia species were also judged. The germination rate of the paddy seeds is expressed as %, and the growth-inhibitory effect on the weeds is expressed as a value of 0 to 100 representing the degree of inhibition, wherein 0 represents no inhibition, and 100 represents complete death.
# Scirpus juncoides = experiment: as above; type: in vivo; settings: Table 6; scale 0 to 100 (complete death); Day 22 after sowing of paddy seeds
# Experimental: as §1, §2
# Monochoria vaginalis = experiment: as above; type: in vivo; settings: Table 6; paddy seeds sown at five-leaf stage of weed; scale 0 to 100; Day 22 after sowing
# Experimental: as §1, §2
Germination rate of paddy rice (%) (paddy rice [1]; in vivo),Germination rate of paddy rice (%) (paddy rice [2]),"Germination rate of paddy rice (%) (paddy rice [1]; Table 2, iron-coated seeds treated with agent (a.i. g per 1 kg seeds as in row), Day 15 after sowing)",SMILES,Growth-inhibitory rate Lindernia species (Lindernia species),Growth-inhibitory rate Scirpus juncoides (Scirpus juncoides),Growth-inhibitory rate Monochoria vaginalis (Monochoria vaginalis)
50,–,–,"CS(=O)(=O)c1ccc(C(=O)C2=C(Sc3ccccc3)C3CCC(C3)C2=O)c(Cl)c1 (stereo not shown) [compound 2, Benzobicyclon]",–,–,–
50,–,–,"CS(=O)(=O)c1ccc(C(=O)C2C(=O)CCCC2=O)c(Cl)c1COCC1CCCO1 (stereo not shown) [compound 1, Tefuryltrione]",–,–,–
–,100,100,"COc1ccc(-n2c(=O)c(C(=O)C3C(=O)CCCC3=O)nc3c(Cl)cccc32)cc1 [Example 1, Fenquinotrione]",95,98,95

# From patent publication US10506759B2, “Rice seed treatment agent” (KUMIAI CHEMICAL INDUSTRY CO., LTD., priority 2015, dated 2019)
